{
  "source": "paper PMC9246869",
  "about": "“Allosteric inhibition of PPM1D serine/threonine phosphatase via an altered conformational state” (Nature Communications, 2022)",
  "key": {"PPM1D1–420 [1]": {"biological_target": "T1, PPM1D1–420 (Homo sapiens, UniProt O15297)", "T1 construct": "PPM1D1–420 was PCR-amplified from the synthesized gene with BsaI sites; His(6)-SUMO (N, cleaved yes); made in house; host or cells: E. coli BL21 (DE3)", "T1 sequence (O15297 1-420)": "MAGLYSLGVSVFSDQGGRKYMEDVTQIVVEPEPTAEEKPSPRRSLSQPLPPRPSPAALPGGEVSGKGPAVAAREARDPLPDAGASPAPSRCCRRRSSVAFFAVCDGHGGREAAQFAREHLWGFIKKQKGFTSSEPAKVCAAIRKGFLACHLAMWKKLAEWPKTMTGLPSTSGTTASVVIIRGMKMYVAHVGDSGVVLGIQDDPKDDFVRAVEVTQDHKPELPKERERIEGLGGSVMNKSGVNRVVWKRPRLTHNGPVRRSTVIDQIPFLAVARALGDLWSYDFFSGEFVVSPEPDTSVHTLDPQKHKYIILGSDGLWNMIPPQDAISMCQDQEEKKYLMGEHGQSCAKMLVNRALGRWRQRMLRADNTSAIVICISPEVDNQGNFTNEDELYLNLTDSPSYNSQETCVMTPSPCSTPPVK", "test": "Surface plasmon resonance (SPR)", "format": "binding", "conditions": "for Kd: read-out: KD", "protocol": "SPR was carried out on the Biacore S200 (GE Healthcare) using Series S sensor chip NTA (GE BR-1005-32). The preparation of the chip surface was conducted according to the manufacturer’s indications. The running buffer contained 50 mM Tris (pH 7.5), 50 mM NaCl, 1 mM MgCl2, 0.5 mM TCEP, 0.005% (v/v) P20 surfactant, and 2% DMSO. PPM1D1–420 and PPM1D∆Flap were run under single-cycle mode due to the slow-off-rate kinetics. The two proteins were immobilized on the chip surface in flow cells 2 and 3 with a signal of ~1500–2000 RU at a rate of 5 μL/min while flow cell 1 was left blank as a reference. The running buffer was injected three times followed by the GSK2830371 analyte in solution. Injections were carried out at a flow rate of 50 μL/min with the analyte in a concentration series of 5-point, 3-fold ending at 400 nM top dose. The association and dissociation phases were monitored for 90 s and 600 s, respectively. Collected data were evaluated using the Biacore S200 Evaluation Software under 1:1 binding mode. PPM1D∆Hinge was run under multi-cycle mode due to its fast-on/fast-off kinetics. The protein was immobilized to give a signal of ~ 3000 RU. GSK2830371 analyte in solution was injected at a flow rate of 90 μL/min in a 10-pt, 2-fold concentration series ending at 15 μM top dose. The association and dissociation phases were monitored for 45 s and 150 s, respectively. Since GSK2830371 had issues with solubility/aggregation at high concentrations that caused artifacts in sensorgrams, only steady-state analysis was performed to extract Kd."}, "PPM1D1–420 [2]": {"biological_target": "T1, PPM1D1–420", "test": "Hydrogen–deuterium exchange mass spectrometry (HDX-MS)", "protocol": "Hydrogen–deuterium exchange in PPM1D proteins (PPM1D1–420, PPM1D∆Flap, and PPM1D∆Hinge) was monitored by incubating 27 pmoles of protein in storage buffer (50 mM Tris HCl pH 7.4, 500 mM NaCl, 10% glycerol, 10 mM MgCl2, 1 mM TCEP, H2O) with a 10-fold molar excess of GSK2830371 (270 pmoles) in DMSO, or 3.85% DMSO as a control. Due to the low solubility of the compound, the exact molar excess was unknown. […] The slow off-rate of the compound likely plays a role in this. The PPM1D:GSK/DMSO mix equilibrated for 15 min at room temperature, followed by the addition of a 15-fold excess of labeling buffer (20 mM HEPES, pD 7.5, 25 mM NaCl, 5 mM MgCl2, 0.1 mM TCEP, D2O) at 25 °C. Analysis of C-terminal truncations of PPM1D were performed without the DMSO and preincubation step. […]\nAll samples were digested immediately after quench by injecting directly into an M-class nanoAcquity UPLC with HDX technology (Waters) for online digestion with an Enzymate BEH pepsin column [2.1 × 30 mm, 5 μm (Waters)] and UPLC peptide separation. […] Back-exchange was calculated based on deuterium uptake observed in peptides within PPM1D that are solvent accessible, lack structure, and display these characteristics in their uptake profile (high deuterium incorporation that remains a flat line over 4 h time course). […]"}},
  "note": "“And” between values parts separate entries of the source, which are not always exact repeats. Equal entries are not always repeated. Where two headings read alike, the source gives them in different places.",
  "data": [
    {"compound": "Cc1ncc(Cl)cc1NCc1ccc(C(=O)N[C@@H](CC2CCCC2)C(=O)NC2CC2)s1", "note": "[GSK2830371]", "values": [
      {"measurement": "koff", "setting": "PPM1D1–420 [1]; Fig 3D, Average of 3 trials", "result": 0.00024, "unit": "s⁻¹"},
      {"measurement": "kon", "setting": "PPM1D1–420 [1]; Fig 3D, Average of 3 trials", "result": 433000, "unit": "M⁻¹ s⁻¹"},
      {"measurement": "Kd", "setting": "PPM1D1–420 [1]; Fig 3D, Average of 3 trials", "result": 1.2, "unit": "nM"},
      {"measurement": "koff", "setting": "PPM1D1–420 [1]; Fig 3D, individual trials", "result": "0.00011 s⁻¹ and 0.00028 s⁻¹ and 0.00033 s⁻¹"},
      {"measurement": "kon", "setting": "PPM1D1–420 [1]; Fig 3D, individual trials", "result": "595000 M⁻¹ s⁻¹ and 343000 M⁻¹ s⁻¹ and 362000 M⁻¹ s⁻¹"},
      {"measurement": "Kd", "setting": "PPM1D1–420 [1]; Fig 3D, individual trials", "result": "0.8 nM and 1 nM"},
      {"measurement": "kon", "setting": "PPM1D1–420 [1]; read-out: kon (SPR), PPM1D1–420, Fig. 3D", "result": "430000 ± 100000", "unit": "M⁻¹ s⁻¹"},
      {"measurement": "protein in the exposed population (bimodal distribution, residues 270-278) in presence of compound", "setting": "PPM1D1–420 [2]", "result": "> 95", "unit": "%"}
    ]}
  ]
}
